Assay [1] relates to S. aureus ATCC12600 MRSA. The assay is described as follows: MIC, NCCLS broth microdilution. The conditions noted are these: Staphylococcus aureus. Format: cell-based. A digest of the protocol:
(§1)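 NCCLS broth microdilution MICs determined in both cation-adjusted Mueller-Hinton broth and trypticase soy broth. Media containing ramoplanin supplemented with 0.02% BSA to prevent binding to plastic.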

Assay [2] deals with E. faecium 1836. The assay is described as follows: MIC, NCCLS broth microdilution. Format: cell-based. The note with it: Enterococcus faecium, 1836, E. faecium 1836. A digest of the protocol:
as §1

For assay [3], the system named is S. aureus ATCC700699 MRSA/VISA. The assay is described as follows: MIC, NCCLS broth microdilution. Format: cell-based. A digest of the protocol: as §1
Assay [4] has as its system E. faecium A6345 Line-R. The assay is described as follows: MIC, NCCLS broth microdilution. It counts as cell-based. The note with it: for MIC: Enterococcus faecium, A6345LINER, E. faecium A6345 Line-R. A digest of the protocol: as §1
The test system of assay [5] is E. faecium A6343 Line-R. The assay is described as follows: MIC, NCCLS broth microdilution. It counts as cell-based. The note with it: Enterococcus faecium, A6343LINER. A digest of the protocol: as §1
Assay [6] deals with VanA strain of E. faecium (VRE). The assay is described as follows: Suppression of VRE in a mouse colonization model. Format: in vivo, Mice. The method, then: Mice were colonized with a clinical isolate VanA strain of E. faecium (VRE) isolated from a septicemic patient. A single inoculation of 5×10^8 cfu VRE by oral gavage (Day 0) was followed by treatment with vancomycin in the drinking water to maintain colonization. On day 22, each group received the same vancomycin-containing drinking water. One group also received ramoplanin (100 μg/mL) in its drinking water. The dose of ramoplanin per day was estimated to be 15 mg/kg, based on a standard water consumption of 150 mL/kg/day. Treatment with ramoplanin was discontinued on Day 29, and vancomycin treatment was discontinued on Day 36. The control group consisted of five mice, while the ramoplanin group consisted of four mice.

The test system of assay [7] is E. faecium A 6350 Line-R. The assay is described as follows: MIC, NCCLS broth microdilution. Format: cell-based. A digest of the protocol:
as §1

Where [8] appears, read: Staphylococcus aureus, S. aureus ATCC700699 MRSA/VISA, Table 6, 1st, read-out: MIC.
Where [9] appears, read: Staphylococcus aureus, S. aureus ATCC700699 MRSA/VISA, Table 6, 2nd, read-out: MIC.
Setting [10] is: E. faecium A6345 Line-R. as printed, second row of Table 3.
Where [11] appears, read: E. faecium A6345 Line-R., first row of Table 3.
Setting [12] is: Day 22, prior to ramoplanin therapy, control group, 25 mg/kg/day vancomycin.
Setting [13] is: Day 22, prior to ramoplanin therapy, ramoplanin group, on 25 mg/kg/day vancomycin.
Setting [14] is: Day 29, control group, 25 mg/kg/day vancomycin.
The mark [15] stands for this setting: Day 36, 7 days after completion of ramoplanin therapy, former ramoplanin group, on 25 mg/kg/day vancomycin.
The mark [16] stands for this setting: Day 36, control group, 25 mg/kg/day vancomycin.

Consider three compounds from patent US20040127403A1, “Methods for treating and preventing Gram-positive bacteremias” (priority 2002, published 2004).

In brackets after ≈: the same amount, converted by molar mass. Read-outs that look alike come from different tables or passages of the source.

Turning to `CC(=O)NC[C@H]1CN(c2ccc(N3CCOCC3)c(F)c2)C(=O)O1` [Linezolid], the MIC was 4 µg/mL (≈ 11.9 µM) in assay [1] (Table 6, 1st, read-out: MIC); 2 µg/mL (≈ 5.93 µM) in assay [1] (Table 6, 2nd, read-out: MIC); 4 µg/mL (≈ 11.9 µM) in assay [2] (Table 6, 1st, read-out: MIC); 2 µg/mL (≈ 5.93 µM) in assay [2] (Table 6, 2nd, read-out: MIC); 4 µg/mL (≈ 11.9 µM) in assay [3] (setting [8]); 2 µg/mL (≈ 5.93 µM) in assay [3] (setting [9]). The MIC in assay [4] (Table 6, 1st, read-out: MIC) was over 16 µg/mL; in assay [4] (Table 6, 2nd, read-out: MIC) it was 32 µg/mL (≈ 94.9 µM); in assay [5] (Table 6, 1st, read-out: MIC) it was 8 µg/mL (≈ 23.7 µM); in assay [5] (Table 6, 2nd, read-out: MIC), 8 µg/mL (≈ 23.7 µM). Besides, the entries for the “reference MIC for strains used for killing curve” value in assay [4] (setting [10]) and in assay [4] (setting [11]) were 16 µg/mL and 16 to 32 µg/mL, respectively.

On to `CN[C@H](CC(C)C)C(=O)N[C@H]1C(=O)N[C@@H](CC(N)=O)C(=O)N[C@H]2C(=O)N[C@H]3C(=O)N[C@H](C(=O)N[C@H](C(=O)O)c4cc(O)cc(O)c4-c4cc3ccc4O)[C@H](O)c3ccc(c(Cl)c3)Oc3cc2cc(c3O[C@@H]2O[C@H](CO)[C@@H](O)[C@H](O)[C@H]2O[C@H]2C[C@](C)(N)[C@H](O)[C@H](C)O2)Oc2ccc(cc2Cl)[C@H]1O` [Vancomycin], for which the “% Mice with VRE” value in assay [6] (setting [12]), in assay [6] (setting [13]), in assay [6] (setting [14]), in assay [6] (setting [15]) and in assay [6] (setting [16]) was 100% in each case. For the same compound, the “Enterococci in faeces: Total Enterococci” value was determined as 9.6 log 10 cfu/g faeces in assay [6] (setting [12]); 9.8 log 10 cfu/g faeces in assay [6] (setting [13]); 9.3 log 10 cfu/g faeces in assay [6] (setting [14]); 8.6 log 10 cfu/g faeces in assay [6] (setting [15]); 9.6 log 10 cfu/g faeces in assay [6] (setting [16]). Also, the “Enterococci in faeces: VRE” value in assay [6] (setting [12]) came out at 9.7 log 10 cfu/g faeces; in assay [6] (setting [13]), 9.7 log 10 cfu/g faeces; in assay [6] (setting [14]) it was 9.4 log 10 cfu/g faeces; in assay [6] (setting [15]), 8.7 log 10 cfu/g faeces; in assay [6] (setting [16]), 9.3 log 10 cfu/g faeces. For the same compound, the MIC in assay [1] (CAMHB) is 2 µg/mL (≈ 1.38 µM); in assay [1] (TSB), 2 µg/mL (≈ 1.38 µM); in assay [1] (Table 6, 1st), 1 µg/mL (≈ 0.69 µM); in assay [1] (Table 6, 2nd) it was 1 µg/mL (≈ 0.69 µM); in assay [2] (CAMHB), over 16 µg/mL; in assay [2] (TSB), over 16 µg/mL. Moreover, the MIC in assay [2] (Table 6, 1st) is over 16 µg/mL; in assay [2] (Table 6, 2nd) it was over 64 µg/mL; in assay [3] (S. aureus ATCC700699 MRSA/VISA, TSB) it was 2, 2 μg/ml; in assay [3] (S. aureus ATCC700699 MRSA/VISA, Table 6, 1st), 2 µg/mL (≈ 1.38 µM); in assay [3] (S. aureus ATCC700699 MRSA/VISA, Table 6, 2nd), 2 µg/mL (≈ 1.38 µM); in assay [3] (Staphylococcus aureus), 2 µg/mL (≈ 1.38 µM). In addition, the MIC in assay [4] (CAMHB) is over 16 µg/mL; in assay [4] (TSB), over 16 µg/mL; in assay [4] (Table 6, 1st), over 16 µg/mL; in assay [4] (Table 6, 2nd), over 64 µg/mL; in assay [7] (E. faecium A 6350 Line-R (Table 2), TSB), >16, >16 μg/ml; in assay [7] (Enterococcus faecium, A6350LINER) it was over 16 µg/mL. The MIC in assay [5] (CAMHB) was determined as 2 µg/mL (≈ 1.38 µM); in assay [5] (TSB), 2 µg/mL (≈ 1.38 µM); in assay [5] (Table 6, 1st) it was 1 µg/mL (≈ 0.69 µM); in assay [5] (Table 6, 2nd) it was 1 µg/mL (≈ 0.69 µM). Besides, the “reference MIC for strains used for killing curve” value in assay [4] (setting [10]) and in assay [4] (setting [11]) was over 64 µg/mL each time.

For `COc1cccc(OC)c1C(=O)N[C@@H]1C(=O)N2[C@@H]1SC(C)(C)[C@@H]2C(=O)O` [Meth., methicillin], the minimal inhibitory concentration (MIC) in assay [1] (Table 6, 1st, read-out: MIC) was 2 µg/mL (≈ 5.26 µM); in assay [1] (Table 6, 2nd, read-out: MIC), over 64 µg/mL; in assay [2] (Table 6, 1st, read-out: MIC) it was over 16 µg/mL; in assay [2] (Table 6, 2nd, read-out: MIC), over 64 µg/mL; in assay [3] (setting [8]), over 16 µg/mL; in assay [3] (setting [9]), over 64 µg/mL. Also, the MIC is over 16 µg/mL in assay [4] (Table 6, 1st, read-out: MIC); over 64 µg/mL in assay [4] (Table 6, 2nd, read-out: MIC); over 16 µg/mL in assay [5] (Table 6, 1st, read-out: MIC); 64 µg/mL (≈ 168 µM) in assay [5] (Table 6, 2nd, read-out: MIC).
